# Test results as given in paper PMC3925085, “Subditine, a New Monoterpenoid Indole Alkaloid from Bark of Nauclea subdita (Korth.) Steud. Induces Apoptosis in Human Prostate Cancer Cells” (PLoS ONE, 2014).
# What was measured:
# Assay type in all cases: cell-based, human
# [1] = system: caspase-3/7 in LNCaP cells; test: Caspase-Glo 3/7 bioluminescent assay, LNCaP
# Experimental: (§1) A time-dependent study of caspase-3/7, -8, and -9 activities was performed in triplicates using assay kits Caspase-Glo 3/7, 8, and 9 (Promega Corp.,Madison,WI, USA) on white 96-well microplate as described previously. A total of 10,000 cells per well was seeded and treated with […] of subditine (1) for 6, 12, 18, 24, and 30 hours. Then, 100 µL of the caspase-Glo reagent was added, incubated at room temperature for 30 minutes and measured using Tecan Infinite 200 Pro (Tecan, Mannedorf, Swizerland) microplate reader.
# caspase-8 in LNCaP cells = test: Caspase-Glo 8 bioluminescent assay, LNCaP; conditions: 12.5 µM, throughout 30 hours
# Experimental: as §1
# caspase-8 in PC-3 cells = test: Caspase-Glo 8 bioluminescent assay, PC-3; conditions: PC-3, 12.5 µM, throughout 30 hours
# Experimental: as §1
# [2] = system: intracellular ROS in LNCaP cells; test: ROS assay (DHE dye, Cellomics HCS), LNCaP; conditions: LNCaP, 12.5, 25, 50 µM, 24 h
# Experimental: (§2) The production of intracellular ROS was detected as described previously. The DHE dye reagent is converted to fluorescent ethidium and intercalates into DNA in response intracellular ROS. Briefly, 10 mM DHE stock solution (in methanol) was diluted 500-fold in HBSS without serum or other additives to yield a 20 µM working solution. After exposure to subditine (1), the cells in the 96-well black plate was washed twice with HBSS and then incubated in 100 µL working solution of DHE at 37°C for 30 minutes. Fluorescence of DCF in each cell was captured, extracted and analyzed with ArrayScan II Data Acquisition and Data Viewer version 3.0 (Cellomics).
# [3] = system: intracellular ROS in PC-3 cells; test: ROS assay (DHE dye, Cellomics HCS), PC-3; conditions: PC-3, 12.5, 25, 50 µM, 24 h
# Experimental: as §2
# LNCaP cells [4] = test: Cellomics multiparameter cytotoxicity assay, LNCaP
# Experimental: Cytotoxicity 3 kit (Thermo Scientific) was used as described previously. Briefly, 24 hours after subditine (1) treatment, MMP dye and the cell permeability dye were added to live cells and incubated for 30 minutes at 37°C. Cells were fixed, permeabilized, blocked with 1x blocking buffer before probing with primary cytochrome c and secondary DyLight 649 conjugated goat anti-mouse IgG antibodies for 1 hour each. Hoechst 33342 was added into the staining solution. Plates were then analyzed using the ArrayScan high content screening (HCS) system (Cellomics, PA, USA). Data were captured, extracted and analyzed with ArrayScan II Data Acquisition and Data Viewer version 3.0.
# LNCaP cells [5] = test: Hoechst 33342 / phalloidin staining, LNCaP; conditions: 24 hours
# Experimental: Cytoskeletal and nuclear morphological changes of LNCaP and PC-3 cells were examined by phalloidin (detects F-actin) and Hoechst 33342 staining. […] At concentration 12.5 µM and 25 µM, nuclear condensation and fragmentation were detected at 24 hours after subditine (1) treatment (Figure 4).
# Figure 3 Subditine (1) induced cytoskeletal rearrangement at the peripheral. LNCaP and PC-3 cells were treated with subditine (1) at various concentrations for 24 hours. Cells were fixed and stained with Hoechst (blue) and phalloidin (red) dye which stained nucleus and polymerized actin (F-actin), respectively. Bar chart showing average fluorescent intensity of phalloidin (mean ± S.D.; *p<0.05).
# Figure 4 Subditine (1) treatment leads to nuclear DNA fragmentation. LNCaP and PC-3 cells were treated with subditine (1) (12.5 µM and 25 µM) for 24 h. Cells were then fixed and stained with Hoescht 33342 (blue). Red circles indicate DNA shrinkage or fragmentation. Images were captured using Cellomic arrayscan system.
# [6] = system: p53 expression in PC-3 cells; test: Western blotting, p53 in PC-3; conditions: PC-3 (p53-null), 24 h
# Experimental: (§3) To determine protein expression, 1×10^6 cells/mL were seeded and treated with subditine (1) or paclitaxel for 24 h. Whole cell extracts were prepared as previously described. Briefly, cells were collected, lysed and resolved on 10% SDS-polyacrylamide gels. After electrophoresis, the proteins were transferred to PVDF membranes (Millipore), blocked with 5% nonfat dry milk in PBS-T (0.05% Tween 20) for 1 hour at room temperature. Membranes were probed with primary rabbit anti-Bcl-2, Bcl-xL or p53 antibodies followed by horseradish peroxidase (HRP)-conjugated secondary anti-rabbit antibody (Cell Signaling Technology Inc., CA, USA). Membranes were stripped and reprobed with mouse anti-β-actin antibody as loading control (Santa Cruz Biotechnology Inc.). Protein-antibody complexes were detected with Amersham ECL prime Western blotting detection reagent (GE Healthcare, USA).
# [7] = system: Bcl-2 expression in LNCaP cells; test: Western blotting, Bcl-2 in LNCaP; conditions: 24 h
# Experimental: as §3
smiles,measurement,setting,value
"Cc1ncc2c(=O)n3c(cc2c1C=O)-c1[nH]c2ccccc2c1CC3 [Subditine, subditine]",caspase-3/7 activity,"[1]; after 12 and 24 hours exposure, 12.25 µM",significant increase
same,time of peak caspase-3/7 activity,[1]; time points 6-30 hours,18 h
same,caspase 8 activity,caspase-8 in LNCaP cells,No significant fold-change
same,caspase 8 activity,caspase-8 in PC-3 cells,No significant fold-change
same,ROS production (DCF/DHE fluorescence level),[2],significantly increased in a dose-dependent manner
same,ROS production (DCF/DHE fluorescence level),[3],significantly increased in a dose-dependent manner
same,cytochrome c release (cytosolic staining),"LNCaP cells [4]; 24 h, compared to control",increased fluorescent-staining in the cytosol
same,membrane permeability,"LNCaP cells [4]; 24 h, compared to control",higher membrane permeability
same,mitochondrial membrane potential (MMP) fluorescence intensity,LNCaP cells [4]; 24 hours,dose-dependent reduction
same,nuclear intensity (apoptotic chromatin changes),"LNCaP cells [5]; 12.5 µM and 25 µM, P<0.05",significantly increased
same,phalloidin (F-actin) intensity,LNCaP cells [5]; various concentrations,Dose-dependent increased
same,p53 expression,[6],did not restore or enhance
same,Bcl-2 expression,[7],down-regulation
